Data taken from patent US7700792B2, “Highly active lysophosphatidic acid and method of screening therewith” (Ono Pharmaceutical Co., Ltd., priority 2003, dated 2010).

Columns and labels:
Male CD (SD) IGS rats = test: Increasing urethral pressure measuring system under anesthesia of rat with urethane; type: in vivo; details: i.v., urethane-anesthetized rat
Text: Male CD (SD) IGS rats (Charles River Japan Inc., 8-9 week-old in use) were anesthetized by subcutaneous administration of urethane (1.2 g/kg). After incision of cervical median, jugular catheter for administration of drug and arterial catheter for measurement of blood pressure were inserted. After incising of hypogastrium median, urethra was tied off in the vicinity of pubic bone. Urethra catheter was inserted into urethra by incision of dome of urinary bladder and fixed by ligation at the bladder neck. Urethra catheter was connected to the pressure tranducer and urethral pressure was measured. Subsequently, urethral pressure was adjusted about 20 mmHg and left until stabilizing (for about 20 minutes).

isolated urethra of rat = test: Contraction-measuring system using an isolated urethra of rat; details: Magnus tube, urethra strips, control high concentration KCl
Procedure: After sacrificing female or male CD (SD) IGS rats (Charles River Japan Inc., 8-9 week-old in use) by blowing heads and exsanguinating from carotid artery and jugular vein, urethra under pubis was isolated carefully and soaked in Krebs-Henseleit solution (112 mM NaCl, 5.9 mM KCl, 2.0 mM CaCl2, 1.2 mM MgCl2, 1.2 mM NaH2PO4, 25.0 mM NaHCO3, 11.5 mM Glucose) immediately. Urethra part was cut from isolated sample, and was dissected flatly and subsequently was cut parallel to circular muscle. Thus, 2-3 strips of sample that are 3-4 mm long by 2-3 mm wide were made from one animal.
The made samples were suspended in the Magnus tube (volume: 10 mL) filled by Krebs-Henseleit solution (vented by 37±1° C., mixed gas [95% O2+5% CO2]). The samples were added about 0.5 g tension and stabilized for 60 min, and subsequently the contractile activity was recorded on recorder (lincarcoder WR3320: GRAPHTEC CORP.) via a pressure amplifier (AP-621G: Nihon Kohden Ltd) from Force displacement transducer (FD pick-up TB-611T; Nihon Kohden Ltd).
The contractile reaction of control was given by stimulation of high concentration KCl solution (solution replaced all NaCl with KCl).

SMILES | increase of urethral pressure (Male CD (SD) IGS rats; 0.3 mg/kg) | increase of urethral pressure (Male CD (SD) IGS rats; 1.0 mg/kg) | contracting effect on the isolated urethra of rat (isolated urethra of rat)
CCCCC/C=C\C/C=C\CCCCCCCC(=O)OC[C@@H](O)COP(=O)([O-])[O-].[Na+].[Na+] [1-linoleoyl(18:2)-LPA, D(+)-sn-1-o-linoleoyl-glyceryl-3-phosphate. sodium salt, reference compound] | 0.6 mmHg | 0.8 mmHg | –
CCCCC[C@@H]1O[C@@H]1C[C@H]1O[C@H]1CCCCCCCC(=O)OC[C@H](O)COP(=O)(O)O [Example 1-1] | 5.4 mmHg | 8.5 mmHg | contracting effect
